Assay: clearance of hydroxyl free radicals, orthophenanthroline Fe2+ oxidation method
Type: biochemical
Design: Clearance rate of •OH (d): unit not given here
Settings: for Clearance rate of •OH (d): n = 5
Source text: Materials and methods-test drug and reagent: Extract of black soybean hull A (containing cyanidin 12.52%, catechin 13.50%, and OPC 54.01%). Orthophenanthroline, hydrogen peroxide, ascorbic acid (VC), and FeSO4.7H2O were all analytical pure reagents made in China. Materials and Methods-instruments: An LSY constant temperature water bath was obtained from a Beijing medical instrument manufacturer, and a UV-2000 spectrophotometer was from […], Shanghai Instrument Co., Ltd.). Test method-reagent preparation: Reagents included 0.1% H2O[…]), a 5 mmol/L anhydrous ethanol solution of orthophenanthroline, 0.75 mmol/L FeSO4, a 0.2 mmol/L phosphoric acid buffer solution (PBS; pH=7.4), BSHE A, prepared with double distilled water and diluted to concentrations of 0.5, 0.25, 0.125, and 0.0625 mg/ml, and ascorbic acid, prepared at concentrations of 4, 2, 1, and 0.5 mg/ml with double distilled water. Test method-measuring hydroxyl free radicals: The clearing of hydroxyl free radicals was tested using an orthophenanthrolin Fe^2+ oxidation method to further evaluate the anti-oxidation capacity of BSHE A. (1) 2 ml PBS, the test drug at the concentrations listed above, and 1 ml ascorbic acid were sequentially added to a disposable 10 ml polyethylene test tube and shaken. 0.35 ml of 5 mmol/L orthophenanthroline solution and 1 ml 0.75 mmol/L FeSO4 were added and mixed fully. 1 ml of 0.1% H2O2 was added, and the tube was vibrated for 1 minute. […] (2) The 1 ml of test drug in (1) was replaced with 1 ml deionized water, while the other conditions were the same as in (1). The absorbency value Ab was measured. (3) The 1 ml H2O2 in (2) was replaced with 1 ml deionized water, while the other conditions were the same as in (2). The absorbency value Ac was measured. (4) The clearance rate (d) of .OH by the test drug and the positive comparison was calculated according to the following equation: [formula] The total volume of reaction was 5.35 ml. The final concentrations of ascorbic acid thus were 0.748 mg/ml, 0.374 mg/ml, 0.187 mg/ml, and 0.093 mg/ml, while the final concentrations of BSHE A were 0.093 mg/ml, 0.047 mg/ml, 0.023 mg/ml, and 0.012 mg/ml. Five samples were tested in each group. The clearance rate of .OH was calculated individually and then average values were calculated.

O=C1O[C@H]([C@@H](O)CO)C(O)=C1O [ascorbic acid]
Clearance rate of •OH (d) (final concentration 0.093 mg/ml): 0.212 ± 2.47 | Clearance rate of •OH (d) (final concentration 0.187 mg/ml): 4.21 ± 1.32 | Clearance rate of •OH (d) (final concentration 0.374 mg/ml): 50.32 ± 4.29 | Clearance rate of •OH (d) (final concentration 0.748 mg/ml): 91.29 ± 3.26 | IC50 of hydroxyl free radical clearance (from fitted line): 401.4 µg/mL
